Test [1] relates to Mycobacterium tuberculosis H37Rv growth in 7H9 media. Nature of the test: M. tuberculosis growth inhibition, dose response, H37Rv, purified and synthesized compounds (AID 493198). The settings on record: for IC90: 90% growth inhibition concentration.
Test in test [2]: as above
The settings on record: Mycobacterium tuberculosis H37Rv growth in 7H9 media; at 100 µM (top of the series).

Calls of active or inactive are those of the source. How the calls were made is not given here. Where a SMILES comes first, the peptide text is derived from it.

Turning to `CCOC(=O)c1ccc(NC(=O)Cn2ncc(Cl)c(Cl)c2=O)cc1`, in test [1], the IC50 was under 200 nM and the IC90 was 203 nM.

Take `COc1cc(NC(=O)C/C(C)=N/NC(=O)c2ccccn2)c(OC)cc1Cl`: in test [1], the half-inhibitory concentration (IC50) is 1940 nM and the IC90 amounted to 4880 nM.

As to `S=c1nc[nH]c2nc[nH]c12`, in test [1], the 50% inhibitory concentration (IC50) is 1280 nM and the IC90 amounted to 1760 nM.

With `c1ccc(/N=C2\N=C(Nc3ccccn3)c3ccccc32)nc1`, in test [1], the IC50 is under 200 nM and the concentration for an effect of 90% (IC90) was under 200 nM.

`COC(=O)c1cc(=O)n(-c2ccc(F)cc2)c(=Nc2ccc(F)cc2)s1`: in test [1], the IC50 was under 200 nM and the IC90 turned out to be 1580 nM.

Regarding `CCOC(=O)COn1c2c(c3c4no[n+]([O-])c4ccc31)CCCC2`, in test [1], the IC50 is 1580 nM and the IC90 was 3110 nM.

With `Cc1cccc(/C=C/C(=O)c2ccc([N+](=O)[O-])o2)c1`, in test [1], the IC50 was under 200 nM and the IC90 was under 200 nM.

Take `CCC(C)Nc1ccc(NC(C)CC)cc1` (centres undefined): in test [1], the IC50 is 609 nM and the 90% effect concentration (IC90) was 1660 nM.

For `COC(=O)C1CC(=O)N(c2ccc(OCc3ccccc3Cl)cc2)C1` (centres undefined), in test [1], the IC50 is under 200 nM and the IC90 came to 18400 nM.

Turning to `CCOC(=O)CNC(=O)[C@H](Cc1ccccc1)NC(=O)OCc1ccccc1` (HELM PEPTIDE1{[O=C(OCc1ccccc1)[*:2]].F.G.[CCO[*:1]]}$$$$V2.0), in test [1], the IC50 was 1090 nM and the IC90 came to 1860 nM.

Consider `COC(=O)C(C)Oc1ccc(-c2nccc(-c3ccccn3)n2)cc1` (centres undefined), for which, in test [1], the IC50 was 1190 nM and the IC90 amounted to 2920 nM.

As for `COC(=O)CCc1nc2c(C#N)c(-c3ccc(Cl)cc3)ccn2n1`, in test [1], the IC50 is under 200 nM and the IC90 came to 14000 nM.

For `Cc1nc(SCC(=O)NC2CCCCC2)[nH]c(=O)c1C`, in test [1], the IC50 is under 200 nM and the IC90 is under 200 nM.

As to `O=C(/C=C\c1cccs1)N1CCN(Cc2ccc3c(c2)OCO3)CC1`, in test [1], the IC50 was 445 nM and the IC90 was determined as 7480 nM.

`CCOC(=O)COc1ccc(/C=C2\NC(=S)N(CC)C2=O)cc1`: in test [1], the IC50 is 1310 nM and the 90% effect concentration (IC90) came out at 5200 nM.

`CNc1nc(SCc2ccccc2Cl)nc2c1CCCC2`: in test [1], the IC50 was under 200 nM and the IC90 was found to be 5050 nM.

Regarding `CCc1ccc(/C=C2/C(=O)N(C)C(=S)N2CC(=O)OC)s1`, in test [1], the IC50 was 2270 nM and the IC90 came to 17700 nM.

As for `O=C1C(Br)=Cc2cccc3cccc1c23`, in test [1], the IC50 was under 200 nM and the IC90 is under 200 nM.

Turning to `O=C(/C=C/c1ccccc1)N1CCN(CCN2C(=O)c3cccc4cccc(c34)C2=O)CC1`, in test [1], the IC50 is 3470 nM and the IC90 turned out to be 5320 nM.

Take `O=C(CSc1nc2ccccc2c(=O)[nH]1)NC1CCCCC1`: in test [1], the IC50 is under 200 nM and the IC90 was under 200 nM.

Take `O=C(CSc1nc2ccccc2c(=O)[nH]1)NCc1ccc(Cl)cc1`: in test [1], the IC50 is under 200 nM and the IC90 was 929 nM.

For `Cc1ccc2c(c1)c(C1=c3ccccc3=NC1=O)c(O)n2C`, in test [1], the IC50 is under 200 nM and the IC90 came to 1870 nM.

Turning to `Cc1ccc(NC(=O)C2C3/C=C\CCCCC32)cc1C` (centres undefined), in test [1], the concentration for half-maximal inhibition (IC50) is 1170 nM and the IC90 was 1840 nM.

For `CCOC(=O)C(C)Sc1ncnc2c1nnn2-c1ccc(F)cc1` (centres undefined), in test [1], the IC50 was under 200 nM and the IC90 turned out to be 7770 nM.

Consider `CC(C)NC(=O)c1sc(=S)n2c1[nH]c(=O)c1ccc(C(=O)NCCc3ccc(Cl)cc3)cc12`, for which, in test [1], the IC50 is under 200 nM and the IC90 is under 200 nM.

For `Oc1ccccc1/C=N/Nc1ccnc(SCc2ccccc2)n1`, the growth inhibition in test [2] was 2.04% (inactive).

As for `Cc1nn2c(NCc3ccccn3)cc(C(C)C)nc2c1-c1ccccc1`, in test [1], the IC50 was 1030 nM and the IC90 came to 1560 nM.

Consider `Cc1ccc2ccc3ccc(C)nc3c2n1`, for which, in test [1], the half-inhibitory concentration (IC50) is under 200 nM and the IC90 is under 200 nM.

On to `CC(=NCc1ccc2c(c1)OCO2)C1=C(O)c2ccccc2C1=O`, for which, in test [1], the IC50 was under 200 nM and the concentration for an effect of 90% (IC90) worked out at 23100 nM.

On to `O=C(NCC(c1cccs1)N1CCOCC1)c1cc([N+](=O)[O-])cc([N+](=O)[O-])c1` (centres undefined), for which, in test [1], the IC50 is under 200 nM and the IC90 is under 200 nM.

The values above are taken from PubChem BioAssay AID493198 (Southern Research Specialized Biocontainment Screening …, 2011).
